Laboratory results reported in paper PMC12015462, “Prioritization of novel anti-infective stilbene derivatives by combining metabolomic data organization and a stringent 3R-infection model in a knowledge graph” (RSC Advances, 2025).
Where two headings read alike, the source gives them in different places.

What was measured:
Assay type in all cases: cell-based
[1] = tested on: Mycobacterium marinum; assay: Infection assay: intracellular M. marinum growth (luminescence) in D. discoideum; settings: for activity at 0.411523 µM / activity at 1.23457 µM / activity at 3.7037 µM / activity at 11.1111 µM / activity at 33.3333 µM / activity at 100 µM: 72 h; for activity at 0.411523 µM: conc 0.411522634 uM; for activity at 1.23457 µM: conc 1.234567901 uM; for activity at 3.7037 µM: conc 3.703703704 uM; for activity at 11.1111 µM: conc 11.11111111 uM; for activity at 33.3333 µM: conc 33.33333333 uM; for activity at 100 µM: conc 100 uM; for IC50: interpolated between the two concentrations closest to residual growth 0.5, top concentration 100 μM
Excerpt: (§1) Since fractions were not weighed individually, the injection mass was used to calculate an average mass per fraction and thus a nominal mass concentration.

[2] = tested on: Dictyostelium discoideum; assay: Infection assay: growth of the host amoeba D. discoideum (fluorescence) in infection; settings: for activity at 0.411523 µM / activity at 1.23457 µM / activity at 3.7037 µM / activity at 11.1111 µM / activity at 33.3333 µM / activity at 100 µM: 72 h; for IC50: read-out: IC50 Dd in infection (μM)
Excerpt: as §1

[3] = tested on: Mycobacterium marinum; assay: Anti-biotic assay: M. marinum growth in broth (luminescence); settings: for activity at 0.411523 µM / activity at 1.23457 µM / activity at 3.7037 µM / activity at 11.1111 µM / activity at 33.3333 µM / activity at 100 µM: 72 h; for IC50: read-out: IC50 Mm in broth (μM)
Procedure: as §1
Plating bacteria and compounds or fractions was performed analogously to the infection assay described above. Bacteria growth was monitored with the Agilent BioTek H1 plate reader by recording luminescence at 32 °C.
The prepared plates were sealed and stored at 4 °C overnight. On the day of the experiment, nine 10 cm Petri dishes were infected (as described before) and grouped into three pools.

[4] = vehicle control set at 1, read-out: mean normalized residual growth, Mm in infection
[5] = vehicle control set at 1, read-out: median normalized residual growth, Mm in infection
[6] = read-out: mean normalized residual growth, Dd in infection
[7] = read-out: median normalized residual growth, Dd in infection
[8] = read-out: mean (normalised M. marinum growth, Mm in broth)
[9] = read-out: median (normalised M. marinum growth, Mm in broth)

Row | Structure (SMILES) | activity at 0.411523 µM [1, 4] [%] | activity at 0.411523 µM [1, 5] [%] | activity at 1.23457 µM [1, 4] [%] | activity at 1.23457 µM [1, 5] [%] | activity at 3.7037 µM [1, 4] [%] | activity at 3.7037 µM [1, 5] [%] | activity at 11.1111 µM [1, 4] [%] | activity at 11.1111 µM [1, 5] [%] | activity at 33.3333 µM [1, 4] [%] | activity at 33.3333 µM [1, 5] [%] | activity at 100 µM [1, 4] [%] | activity at 100 µM [1, 5] [%] | IC50 [1] [µM] | activity at 0.411523 µM [2, 6] [%] | activity at 1.23457 µM [2, 6] [%] | activity at 3.7037 µM [2, 6] [%] | activity at 11.1111 µM [2, 6] [%] | activity at 33.3333 µM [2, 6] [%] | activity at 100 µM [2, 6] [%] | activity at 0.411523 µM [2, 7] [%] | further results
1 | Oc1cc(O)cc([C@H]2c3c(O)cc(/C=C/c4ccc(O)cc4O)cc3O[C@@H]2c2ccc(O)cc2O)c1 (relative stereo) [Compound 10, (−)-Gnetumontanin A] | 90.6 | 90.5 | 132 | 135 | 120 | 120 | 145 | 152 | 157 | 160 | 41.3 | 59.1 | > 100 | 126 | 88.6 | 59.8 | 54.4 | 51.5 | 6.33 | 102 | activity at 1.23457 µM [2, 7]: 97%; activity at 3.7037 µM [2, 7]: 90.5%; activity at 11.1111 µM [2, 7]: 84.7%; activity at 33.3333 µM [2, 7]: 80.4%; activity at 100 µM [2, 7]: 76.2%; IC50 [2]: > 100 µM; activity at 0.411523 µM [3, 8]: 111%; activity at 1.23457 µM [3, 8]: 103%; activity at 3.7037 µM [3, 8]: 95.3%; activity at 11.1111 µM [3, 8]: 96.3%; activity at 33.3333 µM [3, 8]: 99.7%; activity at 100 µM [3, 8]: 90%; activity at 0.411523 µM [3, 9]: 116%; activity at 1.23457 µM [3, 9]: 103%; activity at 3.7037 µM [3, 9]: 95.2%; activity at 11.1111 µM [3, 9]: 96.3%; activity at 33.3333 µM [3, 9]: 97.6%; activity at 100 µM [3, 9]: 91%
2 | Oc1ccc(/C=C/c2cc(O)c3c(c2)O[C@H](c2ccc(O)cc2)[C@H]3c2cc(O)c3c(c2)O[C@H](c2ccc(O)cc2)[C@H]3c2cc(O)c3c(c2)O[C@H](c2ccc(O)cc2O)[C@H]3c2cc(O)cc(O)c2)cc1 [Compound 7, Macrostachyol A] | 139 | 130 | 158 | 153 | 163 | 154 | 151 | 157 | 80.7 | 76 | 33.4 | 37.5 | 66.7 | 143 | 146 | 119 | 111 | 63 | -92.9 | 91.3 | activity at 1.23457 µM [2, 7]: 90.3%; activity at 3.7037 µM [2, 7]: 92%; activity at 11.1111 µM [2, 7]: 91%; activity at 33.3333 µM [2, 7]: 82.1%; activity at 100 µM [2, 7]: 3.73%; IC50 [2]: 66.7 µM; activity at 0.411523 µM [3, 8]: 118%; activity at 1.23457 µM [3, 8]: 118%; activity at 3.7037 µM [3, 8]: 114%; activity at 11.1111 µM [3, 8]: 106%; activity at 33.3333 µM [3, 8]: 112%; activity at 100 µM [3, 8]: 107%; activity at 0.411523 µM [3, 9]: 117%; activity at 1.23457 µM [3, 9]: 123%; activity at 3.7037 µM [3, 9]: 116%; activity at 11.1111 µM [3, 9]: 105%; activity at 33.3333 µM [3, 9]: 114%; activity at 100 µM [3, 9]: 109%; IC50 [3]: > 100 µM
3 | Oc1ccc(/C=C/c2cc(O)c3c(c2)O[C@@H](c2ccc(O)cc2)[C@@H]3c2cc(O)c3c(c2)O[C@H](c2ccc(O)cc2O)[C@H]3c2cc(O)cc(O)c2)cc1 [Compound 5, (−)-Latifolol] | 116 | 112 | 160 | 158 | 192 | 178 | 136 | 125 | 81.5 | 81.6 | 2.94 | 7.57 | 66.7 | 112 | 85.8 | 91.4 | 75.1 | 61 | -3.13 | 93.8 | activity at 1.23457 µM [2, 7]: 81.7%; activity at 3.7037 µM [2, 7]: 79.8%; activity at 11.1111 µM [2, 7]: 74.5%; activity at 33.3333 µM [2, 7]: 69%; activity at 100 µM [2, 7]: 32.8%; IC50 [2]: 66.7 µM; activity at 0.411523 µM [3, 8]: 107%; activity at 1.23457 µM [3, 8]: 108%; activity at 3.7037 µM [3, 8]: 104%; activity at 11.1111 µM [3, 8]: 114%; activity at 33.3333 µM [3, 8]: 95.8%; activity at 100 µM [3, 8]: 91%; activity at 0.411523 µM [3, 9]: 106%; activity at 1.23457 µM [3, 9]: 108%; activity at 3.7037 µM [3, 9]: 107%; activity at 11.1111 µM [3, 9]: 116%; activity at 33.3333 µM [3, 9]: 102%; activity at 100 µM [3, 9]: 102%; IC50 [3]: > 100 µM
